Experimental data from ChEMBL document CHEMBL3352532, “Microwave assisted synthesis and docking study of N-(2-oxo-2-(4-oxo-2-substituted thiazolidin-3ylamino)ethyl)benzamide derivatives as anticonvulsant agents” (Bioorg Med Chem Lett, 2014).
Calls of active or inactive are those of the source. The calls are words filed in the database; no cut-off is given here.

Key:
[1] = tested on: Mus musculus; experiment: Anticonvulsant activity in ip dosed Swiss CF1 mouse measured after 0.5 hrs by MES test; assay type: functional
[2] = tested on: Mus musculus; experiment: Anticonvulsant activity in ip dosed Swiss CF1 mouse measured after 4 hrs by MES test; assay type: functional
[3] = tested on: Mus musculus; experiment: Anticonvulsant activity in ip dosed Swiss CF1 mouse measured after 0.5 hrs by scPTZ test; assay type: functional
[4] = tested on: Mus musculus; experiment: Anticonvulsant activity in ip dosed Swiss CF1 mouse measured after 4 hrs by scPTZ test; assay type: functional
[5] = Neurotoxicity in ip dosed Swiss CF1 mouse assessed as induction of motor impairment measured after 0.5 hrs by rotorod test; assay type: toxicity, organism-based; settings: in vivo, read-out: MTD50
[6] = Neurotoxicity in ip dosed Swiss CF1 mouse assessed as induction of motor impairment measured after 4 hrs by rotorod test; assay type: toxicity, organism-based; settings: in vivo, read-out: MTD50
[7] = tested on: Mus musculus; experiment: Behavioral activity in Swiss CF1 mouse assessed as activity score at 100 mg/kg, ip measured after 0.5 hrs post dose by actophotometry; assay type: organism-based; design: dose 100 mg/kg, route intraperitoneal; settings: in vivo
[8] = tested on: Mus musculus; experiment: Behavioral activity in Swiss CF1 mouse assessed as activity score at 100 mg/kg, ip measured after 4 hrs post dose by actophotometry; assay type: organism-based; design: dose 100 mg/kg, route intraperitoneal; settings: in vivo
[9] = Lipophilicity, log P of the compound by UV spectroscopy; assay type: physicochemical; settings: octanol/water
[10] = tested on: Mus musculus; experiment: Hepatotoxicity in Swiss CF1 mouse assessed as induction of fatty changes and inflammations at 300 mg/kg, ip; assay type: toxicity, organism-based; design: dose 300 mg/kg, route intraperitoneal; settings: in vivo
[11] = tested on: Mus musculus; experiment: Hepatotoxicity in Swiss CF1 mouse assessed as induction of necrosis and fatty changes at 300 mg/kg, ip; assay type: toxicity, organism-based; design: dose 300 mg/kg, route intraperitoneal; settings: in vivo
[12] = tested on: Mus musculus; experiment: Hepatotoxicity in Swiss CF1 mouse assessed as induction of inflammation and necrosis at 300 mg/kg, ip; assay type: toxicity, organism-based; design: dose 300 mg/kg, route intraperitoneal; settings: in vivo

| SMILES | MED50 [1] | MED50 [2] | MED50 [3] | MED50 [4] | TD50 at 0.5 h [5] [mg/kg] | TD50 at 4 h [6] [mg/kg] | Activity [7] | Activity [8] | logP [9] | Activity [10] | Activity [11] | Activity [12] |
| --- | --- | --- | --- | --- | --- | --- | --- | --- | --- | --- | --- | --- |
| COc1ccc(C2SCC(=O)N2NC(=O)CNC(=O)c2ccccc2)cc1 (stereo not given) | 300 mg/kg | inactive | 100 mg/kg | inactive | 300 | 300 | 77.8 | 80.2 | 1.85 |  |  |  |
| O=C(CNC(=O)c1ccccc1)NN1C(=O)CSC1c1c[nH]c2ccccc12 (stereo not given) | 300 mg/kg | inactive | inactive | inactive | 300 | 100 | 102.6 | 120 | 1.7 |  |  |  |
| COc1cc(C2SCC(=O)N2NC(=O)CNC(=O)c2ccccc2)cc(OC)c1OC (stereo not given) | 100 mg/kg | 300 mg/kg | 300 mg/kg | 300 mg/kg | 100 | 100 | 92.6 | 101 | 1.65 |  |  |  |
| O=C(CNC(=O)c1ccccc1)NN1C(=O)CSC1c1cccc(Cl)c1 (stereo not given) | 300 mg/kg | inactive | inactive | inactive | 30 | 30 | 102.6 | 108.2 | 2.8 |  |  |  |
| O=C(CNC(=O)c1ccccc1)NN1C(=O)CSC1c1ccccc1Cl (stereo not given) | 100 mg/kg | 300 mg/kg | inactive | inactive | 100 | 100 | 108.8 | 110.8 | 2.3 |  |  |  |
| COc1ccc(C2SCC(=O)N2NC(=O)CNC(=O)c2ccccc2)cc1OC (stereo not given) | 30 mg/kg | 30 mg/kg | 100 mg/kg | 300 mg/kg |  |  | 42 | 88.6 | 1.85 | Non-toxic |  |  |
| O=C(CNC(=O)c1ccccc1)NN1C(=O)CSC1c1ccc(Cl)cc1 (stereo not given) | 100 mg/kg | 100 mg/kg | 300 mg/kg | inactive |  |  | 103.6 | 71.6 | 2.87 |  |  |  |
| CCCC(CCC)C(=O)[O-].[Na+] [VALPROATE SODIUM] |  |  | 300 mg/kg | inactive |  |  |  |  |  |  |  |  |
| O=C(CNC(=O)c1ccccc1)NN1C(=O)CSC1c1ccc(O)cc1 (stereo not given) | 30 mg/kg | 100 mg/kg | inactive | inactive |  |  | 38.2 | 99.6 | 1.75 |  |  |  |
| O=C1NC(=O)C(c2ccccc2)(c2ccccc2)N1 [PHENYTOIN] | 30 mg/kg | 30 mg/kg |  |  |  |  |  |  |  |  | Toxic |  |
| O=C(CNC(=O)c1ccccc1)NN1C(=O)CSC1c1ccccc1 (stereo not given) | 300 mg/kg | 300 mg/kg | 100 mg/kg | 300 mg/kg | 100 | 300 | 74 | 94.8 | 1.95 |  |  | Toxic |
| O=C(CNC(=O)c1ccccc1)NN1C(=O)CSC1c1ccc(F)cc1 (stereo not given) | inactive | inactive | inactive | inactive |  | 300 | 64.6 | 94 | 2.1 |  |  |  |
